Data taken from patent US5409911A, “Prostaglandin analog for treating osteoporosis” (Merck & Co., Inc., priority 1992, dated 1995).
Like-named read-outs stand apart in the source and are kept apart here.

Assays:
bone resorption = type: in vivo, rat (Sprague-Dawley female); details: equimolar weekly i.v. doses
Description: Lysylpyridinoline concentration is a measure of the breakdown of bone collagen.
Effect of PGE2 /ABP (IIIa) on bone resorption estimated by urinary excretion of lysypyridinoline in the rat
4 week old Sprague-Dawley female rats were injected intravenously via the tail vein with equimolar weekly doses of ABP (1 mg/kg, n=5), PGE2 /ABP (2.4 mg/kg, n=5), PGE2 (1.4 mg/kg, n=5), or saline (n=4) each. Filtered urine was collected after 12 and 26 days by housing individual rats in metabolic cages and providing them with food and water ad libitum. The overnight collections of urine were centrifuged at 1000×g for 10 minutes to remove any particles and the supernatant fluid was stored at -80° C. until analysis. Lysylpyridinoline (LP) was extracted from duplicate 1 ml aliquots by acid hydrolysis and subsequent low pressure CF-1 chromatography according to the method of Beardsworth et al. (1990). LP was further resolved by high pressure liquid chromatography according to the method of Uebelhart et al. (1990) and quantitated by comparison with an external standard. Urinary creatinine was measured using the picric acid colorimetric assay (Pharmacia Diagnostics Inc., Fairfield, N.J.). Final results were expressed as pmoles LP per μmole creatinine. […]

[1] = system: bone loss due to limb immobilization; test: Effects on bone loss due to limb immobilization in the rat (unilateral sciatic neurectomy, femoral ash weight); type: in vivo, rat (Sprague-Dawley male); details: s.c. on two consecutive days before neurectomy; femoral ash weight difference, ten days post-neurectomy; ABP 0.5 mg/kg, PGE2/ABP 1.2 mg/kg, PGE2 0.7 mg/kg; n=6
Description: ABP, PGE2 /ABP, and PGE2 effects on bone loss due to limb immobilization in the rat
Male Sprague-Dawley rats weighing 270 grams (10-12 wks) were injected subcutaneously on two consecutive days prior to unilateral sciatic neurectomy induced hindlimb immobilization with the following doses: Vehicle (0.0 mg/kg), ABP (0.5mg/kg), PGE2 /ABP (1.2 mg/kg), PGE2 (0.7 mg/kg). Ten days post-neurectomy femora were removed at necropsy, dissected from the musculature, and placed in crucibles for incineration at 700° C. for twenty-four hours. Following incineration, the femoral ash content was weighed to the nearest 0.1 mg and the femoral ash weight differences between the control and immobilized hindlimb were calculated. Data represent mean ±SEM (n=6).

[2] = 1, 3 and 6 mg of PGE2/Kg/day, cited from earlier work
[3] = cited from earlier work
bone formation = details: systemic injection; cited from earlier work
[4] = cited from earlier work; remark: listed apart in the source
[5] = long term s.c. administration; cited from earlier work
[6] = cited from earlier work; remark: listed apart in the source
[7] = administered systemically; cited from earlier work

## NCCCC(O)(P(=O)([O-])[O-])P(=O)(O)O.[Na+].[Na+] [ABP, 4-amino-1-hydroxybutylidene bisphosphonic acid disodium salt]
Bone resorption; 12 days
  urinary lysylpyridinoline (LP) level versus vehicle: lower levels of LPs
Bone resorption; 26 days
  urinary lysylpyridinoline (LP) level versus vehicle: lower levels of LPs
[1]
  prevention of bone loss accompanying limb immobilization: effective

## CCCCC[C@H](O)/C=C/[C@H]1[C@H](O)CC(=O)[C@@H]1C/C=C\CCCC(=O)O [PGE2]
[1]
  prevention of bone loss accompanying limb immobilization: no statistical difference
[2]; secondary spongiosa of proximal tibial metaphysis
  hard tissue mass: increase in hard tissue mass
[2]
  number of trabeculae: increase in the number of trabeculae
[3]; daily administration
  periosteal and corticoendosteal bone mass: increases periosteal and corticoendosteal bone mass and sustains the transient increase in bone mass
[3]; s.c., 60, 120, and 180 days
  bone activity: elevated bone activity
  tibial diaphyseal bone mass: increased tibial diaphyseal bone mass
Bone formation
  bone formation in vivo: stimulated
[4]; 1 mg of PGE2, rats
  serum phosphate levels: significant decreases
[4]; s.c., rats, doses of 3 mg/Kg/day or higher
  side effects: diarrhea and flushing of the extremities along with weight loss
[5]
  soft tissue weight: soft tissue weight increases in adrenal glands, liver, kidneys, and lungs
[6]
  side effects after oral dosing: loose stools, diarrhea, vomiting, infected sclerae
[6]; oral
  serum alkaline phosphatase levels: increased serum alkaline phosphatase levels
[7]
  half-life: short half-life
